# Assay results from patent US20140069008A1, “PLANT C[…] UTILIZING PHOSPHITE AS A NUTRIENT AND AS A CONTROL AGENT FOR WEEDS AND ALGAE” (Centro de Investigacion y de Estudios Avanzados del …, priority 2010, published 2014).
# Legend:
# [1] = tested on: control plants (WT Arabidopsis); assay: Greenhouse growth in sterilized sand and vermiculite supplemented with Phi, control plants; format: in vivo
# Method: For Arabidopsis greenhouse experiments, pots were filled with 0.3 kg of a sterilized mixture of sand and vermiculite (1:1) and mechanically mixed with either Pi (KH2PO4) or Phi (NaH2PO3.5H2O) at 10, 20, and 40 mg·kg^−1. For tobacco experiments, 3 kg of the same substrate were weighed in black plastic bags amended with 20, 40, and 80 mg·kg^−1 of Pi or Phi. One plant per pot and 8-10 plants per line per treatment were included. Pots were arranged following a completely random design in the greenhouse. At harvest, aerial parts of Arabidopsis (36 days old) and Tobacco (120 days old) plants were cut off at the soil surface and dried in a vacuum oven at 70° C. for biomass quantification. In all cases, seeds were collected separately. Photosynthesis rate was determined using a portable Li-6200 photosynthesis system (Li-Cor, Lincoln, Nebr., USA) on fully expanded, young leaves. Leaf area was calculated using the software ImageJ [35].
# FIG. 5. Transgenic Arabidopsis plants expressing a phosphite oxidoreductase can use phosphite as a phosphorus source. (A) Comparative growth of seedlings from ptxDAt-3, -5 and -7 lines, and wild type (WT, Col-0) in solid media containing 1 mM phosphate (Pi) or 1 mM phosphite (Phi). (B) Transgenic Arabidopsis lines and WT control grown in vertical plates containing 1 mM Phi. […]
# [2] = tested on: False Brome (Brachypodium distachyon); assay: Growth competition experiment, weed; format: in vivo
# Excerpt: (§1) In addition to the incapacity of plants to metabolize it, Phi acts as a potentially effective herbicide mainly by interfering with the signaling pathways that induce the rescue system activated in Pi-starved plants. Cultivation of transgenic plants expressing the ptxD gene, combined with Phi as a P fertilizer, could be an effective weed control system in soils with low Pi availability. To test this idea, we carried out growth competition experiments between ptxDNt plants and the grass weed False Brome (Brachypodium distachyon), using Phi or Pi as a P fertilizer. In unfertilized soil, both B. distachyon and tobacco plants had limited growth. When soil was fertilized with Pi, the growth of both species increased, with the grass showing faster growth than the tobacco plants.
# (§2) For growth competition experiments, different proportions of seeds from ptxDNt-80 and the following weeds were utilized (transgenic:weed): Ipomoea purpurea (13:30), Brachiaria plantaginea (13:60), Amaranthus hybridus (5:15), Brachypodium distachyon (50:50). All seeds were sown in a tray containing a nonsterilized mixture of sand and vermiculite (2 kg for experiments with Amaranthus hybridus and 6 kg for the rest). […] Plants were harvested (at 54 day old for Brachiaria and Ipomoea or at 40 day old for A. hybridus experiments) for biomass quantification. […]
# ptxDNt plants = assay: Greenhouse growth in sterilized sand and vermiculite amended with Phi, transgenic tobacco; format: in vivo, Nicotiana tabacum L. cv Xanthi
# Excerpt: (§3) To determine whether expression of the ptxD gene would enable other plant species more amenable for physiological and weed-control studies to use Phi as a P source, we generated transgenic tobacco plants harboring the 35S::PTXD construct (ptxDNt lines) (see FIG. 8). Transgenic and control seedlings were transferred to plastic bags containing a sterilized mixture of sand and vermiculite amended with either Phi or Pi as P source. […] Because the main negative effect in vitro of Phi on WT plants was on root growth, we also examined the root system of transgenic and control plants grown under different treatments. […] Transgenic plants fertilized with Phi quantitatively performed as well as WT and ptxDNt plants fertilized with Pi (see FIG. 10A).
# Pi is essential for CO2 fixation in the chloroplast, and plants suffering from Pi starvation have reduced levels of photosynthesis. […] When fertilized with either Pi or Phi, ptxDNt plants had rates of photosynthesis similar to those observed for control plants grown in Pi (see FIG. 10A). The effect on photosynthesis and root system development of control plants fertilized with Phi could not be evaluated because these plants died soon after transplantation.
# (§4) For Arabidopsis greenhouse experiments, pots were filled with 0.3 kg of a sterilized mixture of sand and vermiculite (1:1) and mechanically mixed with either Pi (KH2PO4) or Phi (NaH2PO3.5H2O) at 10, 20, and 40 mg·kg^−1. […] At harvest, aerial parts of Arabidopsis (36 days old) and Tobacco (120 days old) plants were cut off at the soil surface and dried in a vacuum oven at 70° C. for biomass quantification. […] Photosynthesis rate was determined using a portable Li-6200 photosynthesis system (Li-Cor, Lincoln, Nebr., USA) on fully expanded, young leaves. Leaf area was calculated using the software ImageJ [35].
# FIG. 10. […] Note that Phi was not detected either in leaf or floral tissues of ptxDNt-36 plants grown in a Phi-amended substrate. * Indicates measurements that are statistically different from the corresponding control (p<0.005).
# WT plants (tobacco) = assay: Greenhouse growth in sterilized sand and vermiculite amended with Phi, WT tobacco; format: in vivo, Nicotiana tabacum L. cv Xanthi; details: substrate supplemented with Phi, after transplantation
# Excerpt: as §3
# as §4, with “[35]. […]” for “[35].”
# [3] = tested on: control seedlings (wild type, Col-0); assay: Germination and growth of non-transformed seedlings in media lacking Pi, supplemented with Phi; format: in vivo, Arabidopsis
# Method: To confirm that 35S::PTXD plants are capable of using Phi as a P source, seeds from transgenic lines and non-transformed siblings were germinated in media lacking Pi, and supplemented with Phi.
# FIG. 5. Transgenic Arabidopsis plants expressing a phosphite oxidoreductase can use phosphite as a phosphorus source. (A) Comparative growth of seedlings from ptxDAt-3, -5 and -7 lines, and wild type (WT, Col-0) in solid media containing 1 mM phosphate (Pi) or 1 mM phosphite (Phi). (B) Transgenic Arabidopsis lines and WT control grown in vertical plates containing 1 mM Phi. (C) Transgenic and WT plants grown in a sterilized mixture of sand and vermiculite fertilized with Pi or Phi as phosphorus (P) source. Treatment without addition of a P source (NO P) was utilized as a control. A top view of WT plants in media containing 40 mg·kg^−1 Phi is included. Photographed plants are representative of two experiments with 8-10 plants/treatment/line each. The bar represents 5 cm to indicate scale.
# FIG. 6. Growth of WT Arabidopsis and tobacco plants in phosphite-containing media. Comparative growth of Arabidopsis and tobacco non-transformed seedlings in media lacking a phosphorus (P) source supplemented with 1 mM or 0.005 mM phosphate (Pi) or 1 mM phosphite (Phi).
# [4] = tested on: ptxDNt plants (ptxDNt-80); assay: Growth competition experiment, transgenic tobacco; format: in vivo, Nicotiana tabacum; details: Phi fertilization, competition with B. distachyon
# Excerpt: as §1, §2
# [5] = tested on: transgenic tobacco line ptxDNt-80; assay: Cultivation of transgenic tobacco in non-sterilized acidic agricultural soil amended with phosphite; format: in vivo
# Method: The results of Example 1 were obtained from greenhouse experiments with plants grown in a sterilized mixture of sand and vermiculite as the substrate. In contrast, the present example reports experiments performed in a greenhouse using a non-sterilized agricultural soil as a substrate, to determine whether the cultivation system disclosed herein works equally well with a natural substrate. Although the experiments were performed in a greenhouse, the agricultural soil was not sterilized and therefore contained soil organisms, such as bacteria and fungi, that live naturally in the soil.
# An acidic agricultural soil was obtained from North Mexico. The soil has a low content of phosphorus, about 5 parts per million. The soil was used directly from the field, and was not sterilized. The soil is a sandy loam, composed of about 30% clay, 21% silt, and 49% sand, and is acidic, with a pH of 5.1. The soil has an electrical conductivity (milli-mhos per centimeter) of 0.20. The soil has 1.4% organic matter. Besides phosphorus, the soil has the following assimilable nutrients and minor elements (parts per million): nitrogen 5, potassium 100, iron 7, manganese 26, copper 0.2, and zinc 0.9. The soil has soluble cations and anions (milli-equivalents per liter) as follows: potassium 0.15, calcium 1.5, magnesium 0.5, sodium 0.5, bicarbonates 1.0, and chlorides 0.7.
# A transgenic tobacco line, ptxDNt-80, was used for the experiments. The transgenic line has been modified genetically to express a bacterial phosphite oxidoreductase, namely, PtxD (SEQ ID NO:1). The soil was amended with 40, 60, or 80 parts per million of phosphorus by addition of phosphate or phosphite. Then, seeds from the transgenic and control lines were sowed on the soil. The growth of the transgenic line was measured at different days after germination.
substance,measurement,setting,value
phosphite,survival of control plants,[1],≤ 20 days
same,decrease of weed biomass with respect to Pi fertilization,"[2]; Phi fertilization, competition with ptxDNt tobacco",90%
same,time at which weed growth was completely arrested,[2]; Phi used as fertilizer,15-20 days after sowing
same,total biomass difference versus plants under similar Pi regime,"ptxDNt plants; 80 mg·kg^−1 of Phi, greater than Pi, statistically significant",40%
same,total biomass versus plants under similar Pi regimes,ptxDNt plants; 20 and 40 mg·kg^−1 of Phi,slightly higher
same,rate of photosynthesis versus control plants grown in Pi,ptxDNt plants; fertilized with Phi,similar
same,development of WT plants,WT plants (tobacco),completely arrested their development and died a few days after transplantation
same,growth of control seedlings,[3],completely arrested
same,increase of tobacco biomass with respect to Pi fertilization,[4],865%
same,more seeds than either line fertilized with the same amount of phosphate,"[5]; 20 parts per million phosphite, four months after germination",33%
same,height versus transgenic or control plants fertilized with phosphate,[5]; 68 or 74 days after germination,greater height
same,biomass of leaves and stems versus either line fertilized with phosphate,"[5]; 80 parts per million phosphite, 75 days after germination",higher biomass
same,total production of capsules and seeds per plant versus either line fertilized with phosphate,[5]; four months after germination,similar
